Measurements taken from publication PMC9147171, “Pharmacokinetic/Pharmacodynamic Evaluation of a New Purine-2,6-Dione Derivative in Rodents with Experimental Autoimmune Diseases” (Pharmaceutics, 2022).

Assay: Pharmacokinetic study in rats, single IP dose, serum
Format: in vivo
Details: female, Lewis, rat
Protocol: Female Lewis rats and female C57BL/6 mice were administered IP with compound 34 dissolved in vehicle at a dose of 20 and 50 mg·kg^−1, respectively. Rats and mice were sacrificed at different time points (n = 3 per time point) following compound administration by decapitation under deep anesthesia. Thereafter, blood samples were harvested and allowed to clot at room temperature for 20 min and serum was separated by centrifugation at 3000 rpm for 10 min (EBA 12 R, Hettich, Germany). The obtained serum samples were stored at −80 °C until analysis.
Concentrations of compound 34 in rat and murine serum were quantified by an HPLC/UV method. To isolate the investigated compound, 100 μL of serum containing compound 34 or the same volume of blank serum spiked with a standard solution of compound 34, 10 μL of 4-(8-((furan-2-ylmethyl)amino)-1,3-dimethyl-2,6-dioxo-2,3,6,7-tetrahydro-1H-purin-7-yl)-N’-(2-hydroxybenzylidene)butanehydrazide methanol solution was used as an internal standard (IS) at a concentration of 80 μg·mL^−1, and 50 μL of 0.2 M NaOH solution was added. Subsequently, 1 mL of ethyl acetate was added to each sample and extraction was performed for 20 min on a VXR Vibrax shaker (IKA, Germany). Then, the samples were centrifuged (10,000× g, 5 min) on EBA 12 R centrifuge (Hettich, Germany) and the organic layers were collected and transferred to clean tubes. Subsequently, the organic layers were evaporated under a mild stream of nitrogen at 37 °C and the residues were dissolved in 100 μL of mobile phase and subjected to an HPLC analysis. The HPLC system (LaChrom Elite, Merck-Hitachi, Germany) consisted of L-2420 UV-VIS detector, an L-2200 autosampler, and an L-2130 pump. EZChrome Elite v. 3.2 (Merck-Hitachi, Germany) software was used for data acquisition and integration. The analysis was performed at ambient temperature on a LiChrospher 100 RP-18 column (250 × 4 mm) and a LiChroCART (4 × 4 mm) pre-column (Merck, Germany). The mobile phase was composed of acetonitrile mixed with 20 mM KH2PO4 water solution (pH = 4.5) at the ratio of 40:60 (v/v). A flow rate was 1 mL·min^−1 and analytical wavelength was set at 302 nm. The retention times of compound 34 and IS were approximately 6.3 min and 10.6 min. The method was validated according to the FDA Bioanalytical Method Validation Guidance for Industry (2018). The calibration curves constructed by plotting the peak area of the studied compound to the peak area of the IS vs. compound concentrations were linear in the tested concentration range, i.e., from 0.05–10 mg·L^−1 (r > 0.998). The limit of quantification was 0.05 mg·L^−1. […] The assay presented acceptable intra- and inter-assay precision and accuracy (i.e., they were within 15% of the CV and 15% of the nominal concentration, respectively) for all quality control concentrations (0.1, 1, and 5 mg·L^−1). The mean extraction efficiencies of the analyzed compound and the IS were above 80%.
Pharmacokinetics of compound 34 were investigated in rats and mice following single IP administration. One- and two-compartment models with first-order absorption and linear elimination were tested, but only the one-compartment model appropriately described the concentration-time courses of compound 34 in both rat and murine serum. […] The equations of the model are as follows:(1) dA/dt=−ka×A;A0=D×F, (2) Vd×dCp/dt=ka×A−CLT×Cp; Cp0=0 where A is the amount of the drug at the absorption site, ka is the first-order rate constant of drug absorption, D is the dose, F is the bioavailability, Vd is the volume of distribution, CLT is the total clearance, and Cp is the serum concentration of compound 34.

Structure (SMILES): Cn1c(=O)c2c(nc(NCCc3ccccc3)n2CCCC(=O)NN=Cc2ccc(O)c(O)c2O)n(C)c1=O [Compound 34, 4-(1,3-dimethyl-2,6-dioxo-8-(phenethylamino)-2,3,6,7-tetrahydro-1H-purin-7-yl)-N′-(2,3,4-trihydroxybenzylidene)butanehydrazide]
- absorption half-life (serum, 20 mg·kg^−1, IP, suspension in 10% methylcellulose): 1.2 min
- Vd/F (single IP dose 20 mg·kg^−1, serum, one-compartment model, read-out: Vd/F Apparent volume of distribution, Final Estimate (CV%)): 8.7 L/kg
- AUC (single IP dose 20 mg·kg^−1, serum, read-out: AUC Area under the concentration-time curve, Final Estimate (CV%) (converted)): 752 ng·h/mL
- CL/F (single IP dose 20 mg·kg^−1, serum, read-out: CLT/F Apparent clearance, Final Estimate (CV%)): 440 mL/min/kg
- Cmax (single IP dose 20 mg·kg^−1, serum, read-out: Cmax Maximum serum concentration, Final Estimate (CV%)): 1820 ng/mL
- half-life (single IP dose 20 mg·kg^−1, serum, read-out: t0.5 Elimination half-life, Final Estimate (CV%)): 13.6 min
